Measured values as given in US20260242359A1, “IRHOM2 INHIBITORS AND USES THEREOF” (NEW YORK SOCIETY FOR THE RELIEF OF THE RUPTURED AND …, priority 2023, published 2026).
Like-named read-outs stand apart in the source and are kept apart here.

Test system: PMA-induced release of endogenous HB-EGF from human THP-1 macrophage cells
Assay: Example 15: ELISA-based HB-EGF release assay, PMA-induced, THP-1 macrophage cells
Assay type: cell-based
Conditions: read-out: inhibition of PMA-induced release of HB-EGF from THP-1 cells
Method: In the following study, ELISA-based HB-EGF release assays were performed to analyze the inhibitory effects of Compounds 1, 2, 3, 4, 5, and 7 on PMA-induced release of endogenous HB-EGF from human THP-1 macrophage cells. The ELISA-based HB-EGF release assay that was used in this example is described below.
In brief, on day 1, Nunc black MaxiSorp® 96-well plates (Thermo Fisher Scientific, USA) were coated overnight with 100 μl per well of mouse anti-human HB-EGF capture antibody (provided as part of the DuoSet ELISA kit) at 2 μg/ml TBS at 4° C.
40,000 THP-1 cells (American Type Culture Collection, USA) cells in 80 μl of normal growth medium were seeded in each well of Greiner CELLSTAR V-bottom 96-well plates (Greiner Bio-One, Germany) and pre-incubated with 20 μl per well of standard growth medium supplemented with Batimastat (BB94, Abcam, UK) at 50 μM as positive control (for a final concentration of 10 μM in the resulting 100 μl sample volume), compounds of the invention at 50 μM (for a final concentration of 10 μM in the resulting 100 μl sample volume) and in case of Buffer stimulated and unstimulated controls with DMSO (Carl Roth, Germany) at 50 μM (for a final concentration of 10 μM in the resulting 100 μl sample volume) at 37° C., 5% CO2 for 30 minutes. Subsequently, cells (except those for unstimulated controls) were stimulated with 20 μl per well of PMA (Sigma-Aldrich, USA) at 150 ng/ml in growth medium for a final concentration of 25 ng/ml at 37° C., 5% CO2 for 23 hours.
On day 2, the capture antibody solution was removed and MaxiSorp® plates were blocked with 300 μl per well of TBS, 1% BSA at room temperature for 1-2 hours. Meanwhile, the 96-well plates were centrifuged to pellet cells. In parallel, blocking buffer was removed from the MaxiSorp® plates and plates were washed 4 times with 350 μl TBS-T (Carl Roth, Germany) per well on a 96-head plate washer (Tecan Group, Switzerland). To avoid drying-up, 30 μl TBS were added to each well of the MaxiSorp® plates immediately, followed by the transfer of 70 μl cell-free supernatant per sample. Additionally, 100 μl recombinant human HB-EGF protein (provided as part of the DuoSet ELISA kit) diluted in TBS at defined concentrations were added to the plate as standard references. Plates were incubated at room temperature for 2 hours. After 4 times washing with 350 μl TBS-T (Carl Roth, Germany) per well on a 96-head plate washer (Tecan Group, Switzerland) and careful removal of all buffer traces after the fourth cycle, 100 μl biotinylated goat anti-human HB-EGF detection antibody (provided as part of the DuoSet ELISA kit) at 50 ng/ml TBS were added per well and, protected from direct light, plates were incubated at room temperature for 2 hours.
After 4 times washing with 350 μl TBS-T (Carl Roth, Germany) per well on a 96-head plate washer (Tecan Group, Switzerland) and careful removal of all buffer traces after the fourth cycle, 100 μl streptavidin-AP (R&D Systems, USA) diluted 1:10,000 in TBS were added to each well and, again protected from direct light, plates were incubated at room temperature for 30 minutes. Following another round of 4 times washing with 350 μl TBS-T (Carl Roth, Germany) per well on a 96-head plate washer (Tecan Group, Switzerland) and careful removal of all buffer traces after the fourth cycle, 100 μl AttoPhos substrate solution (Promega, USA) per well was added for incubation in the dark at room temperature for 1 hour. Using an infinite M1000 (Tecan Group, Switzerland) microplate reader, the fluorescence of each well was collected at an excitation wavelength of 435 nm and an emission wavelength of 555 nm.
The delta between Buffer stimulated and Buffer unstimulated was defined 100% inhibition.

[1] = THP-1, 10 μM final concentration, PMA 25 ng/ml, 23 hours, delta Buffer stimulated vs unstimulated = 100% inhibition

Row | SMILES | inhibition at 10 µM [1] [%] | inhibition at 10 µM (THP-1, 23 h) [%]
1 | CCOC(=O)c1ccc(Nc2nc3nonc3n3nnnc23)cc1 [Compound 2] | 77.5 | –
2 | Cc1c(C(=O)NCc2cccs2)sc(=O)n1Cc1ccccc1 [Compound 4] | 62.5 | –
3 | O=C(c1c(Cl)cccc1Cl)N1CCC(Cc2ccc(F)cc2)CC1 [Compound 3] | 29.6 | –
4 | Cc1c(C(=O)NCc2cccs2)sc(=O)n1Cc1ccccc1F [Compound 5] | 55.1 | –
5 | CNC(=O)[C@H](Cc1ccccc1)NC(=O)[C@H](CC(C)C)[C@H](CSc1cccs1)C(=O)NO [Batimastat, reference compound] | 99.2 | –
6 | CCC(=O)NCCc1c(/C=C2/C(=O)NC(=O)N(c3ccc(C)cc3C)C2=O)[nH]c2ccccc12 [Compound 1] | – | 95.4
7 | Cc1c(C(=O)NCc2ccco2)sc(=O)n1Cc1ccccc1F [Compound 7] | 95.1 | –
